Five molecules from PMC6964270, “Co-Prodrugs of 7-Ethyl-10-hydroxycamptothecin and Vorinostat with in Vitro Hydrolysis and Anticancer Effects” (ACS Omega, 2019) can be followed below.

SMILES strings stand for the structures.

One data set concerns A549 cell line. In words: In vitro cytotoxicity, SRB assay, A549. Format: cell-based. The conditions noted are these: Homo sapiens, 72 h, three independent determinations, read-out: IC50 (mean ± SD) A549. (In SRB staining, fixed cells bind dye roughly in proportion to their protein.)
A short description of data set [1]: In vitro degradation and release of co-prodrugs in PBS pH 7.4 (HPLC). The class given is physicochemical. Particulars: pH 7.4 PBS, 37 °C; for formation percentage of SN38: 24 h later. Here is the method: (§1) Chromatographic detection was carried out by using Agilent 1200 high-performance liquid chromatography (HPLC, Agilent, Palo Alto, CA) with a Diamonsil C18 (250 mm × 4.6 mm) column. The detection was conducted at 254 nm (UV detector) with the column temperature at room temperature. The sample volume for each injection was 50 μL. The gradient elution was applied with a mobile phase of acetonitrile (ACN) containing 0.1% formic acid and water containing 0.1% formic acid with a constant flow rate of 1 mL/min: 0–15 min (5% ACN to 95% ACN), 15–25 min (95% ACN). The external standard method was established by HPLC in order to determine the content of each compound.
SN38-SAHA co-prodrug solutions with a concentration of 100 μM/L were diluted to 0.05 μM/L with 10 mM PBS buffer (pH 7.4/6.0). After incubation at 37 °C for 0.5, 1, 2, 3, 4, 6, 12, 24, and 48 h, the areas of SN38-SAHA co-prodrugs and other species were detected by HPLC as well. Then each compound was calculated by the concentration–area standard curve, which was obtained by the external standard method.

The test system of another data set is HCT116 cell line. In words: In vitro cytotoxicity, SRB assay, HCT116. The class given is cell-based. Particulars: Homo sapiens, HCT-116, 72 h, three independent determinations, read-out: IC50 (mean ± SD) HCT-116.
Data set [2] in a line: In vitro degradation and release of co-prodrugs in human plasma (HPLC). Format: in vitro ADME. The conditions noted are these: male, 37 °C, read-out: t1/2 of co-prodrug in plasma (converted).
Excerpt: SAHA was synthesized before. SN-38 was purchased from Shanghai Puyi Chemical Co., Ltd. Di-tert-butyl dicarbonate ((Boc)2O), 4-dimethylaminopyridine (DMAP), 1,1′-carbonyl-diimidazole (CDI), and N,N′-diisopropylcarbodiimide (DIC) were all purchased from Energy Chemical Reagent Co. ( Shanghai, China). The different amino acids were purchased from Meryer Chemical Reagent Co. (Shanghai, China). CH2Cl2 was dried and redistilled before use. All chemical reagents used were of analytical-grade quality. Mouse plasma was taken from KM mouse (male, 6 weeks old). Human plasma was donated by an adult.
as §1
SN38-SAHA co-prodrug solutions with a concentration of 100 μM/L were diluted to 0.1 μM/L by plasma (human/mouse). After incubation at 37 °C for 0.5, 1, 2, 3, 4, and 6 h, 50 μL of reaction mixture was quenched with 50 μL of cold ACN and centrifuged at 30000 rpm × 5 min. The supernatant (50 μL) was detected by HPLC. Then each compound was calculated by the concentration–area standard curve, which was obtained by the external standard method.

As to `CCc1c2c(nc3ccc(O)cc13)-c1cc3c(c(=O)n1C2)COC(=O)[C@@]3(CC)OC(=O)CNC(=O)ONC(=O)CCCCCCC(=O)Nc1ccccc1` [3a], the IC50 (as a rule, the midpoint of a concentration-inhibition curve) worked out at 87.3 ± 7.9 nM in the data set on A549 cell line and 113 ± 10.8 nM in the data set on HCT116 cell line. Also, the half-life at 0.05 μM/L in data set [1] (PBS buffer, read-out: half-life (t1/2) of co-prodrug in PBS (converted)) is 2 h. The “formation percentage of SN38” value in data set [1] worked out at 26.3%. For the same molecule, the half-life at 0.1 μM/L in data set [2] is 1 h.

For the molecule `CCc1c2c(nc3ccc(O)cc13)-c1cc3c(c(=O)n1C2)COC(=O)[C@@]3(CC)OC(=O)CCNC(=O)ONC(=O)CCCCCCC(=O)Nc1ccccc1` [3b], the IC50 was determined as 322 ± 32.5 nM in the data set with A549 cell line and 428 ± 20.5 nM with HCT116 cell line. Further, the “formation percentage of SN38” value in data set [1] came to 3.4%. In data set [2], the half-life at 0.1 μM/L was 3 h.

Turning to `CCc1c2c(nc3ccc(O)cc13)-c1cc3c(c(=O)n1C2)COC(=O)[C@@]3(CC)OC(=O)CCCNC(=O)ONC(=O)CCCCCCC(=O)Nc1ccccc1` [3c], the IC50 came to 663 ± 24.3 nM in the data set with A549 cell line and 760 ± 30.9 nM in the data set with HCT116 cell line. In addition, the “formation percentage of SN38” value in data set [1] was “almost have no SN38 generated”. In data set [2], the half-life at 0.1 μM/L is 5 h.

With `CCc1c2c(nc3ccc(O)cc13)-c1cc3c(c(=O)n1C2)COC(=O)[C@@]3(CC)OC(=O)CCCCCNC(=O)ONC(=O)CCCCCCC(=O)Nc1ccccc1` [3d], the figures for the IC50 in the data set on A549 cell line and with HCT116 cell line were 3100 ± 116 nM and 3010 ± 251 nM, respectively. Moreover, the “formation percentage of SN38” value in data set [1] is recorded as “almost have no SN38 generated”. Moreover, the half-life at 0.1 μM/L in data set [2] is 5 h.

Regarding `CCc1c2c(nc3ccc(O)cc13)-c1cc3c(c(=O)n1C2)COC(=O)[C@]3(O)CC` [SN38, 7-Ethyl-10-hydroxycamptothecin], the IC50 in the data set on A549 cell line came out at 45.4 ± 4.7 nM; in the data set on HCT116 cell line it was 55.1 ± 10 nM.
